Laboratory results taken from patent US10870638B2, “Pyridazinone compound or its salt, and herbicide containing it” (ISHIHARA SANGYO KAISHA, LTD., priority 2016, dated 2020).

Experiments:
Type in all cases: in vivo
Conditions in all cases: 14th day after application
[1] = system: wild oat (Avena fatua L.); assay: Test Example 1: foliar treatment, growth inhibition rate on 14th day
Procedure, shortened: (§1)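 Plants in upland soil were sprayed on the foliage at early leaf stages (wild oat 0.4–1.2, rice 0.2–2.7, green foxtail 0.5–3.2, soybean primary leaf) with wettable powder or emulsifiable concentrate formulations. Spray volume was 1,000 L/ha water containing 0.1 vol% spreader, at prescribed active-ingredient rates. Growth inhibition (0 = untreated, 100 = complete kill) was scored visually on day 14.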

[2] = system: redroot pigweed (Amaranthus retroflexus L.); assay: as above
Procedure, shortened: (§2)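 Visual 0–100% inhibition scoring (100 = complete kill) at 14 days after foliar treatment of soil-grown seedlings at species-specific leaf stages, with the compound sprayed as a wettable powder or emulsifiable concentrate dilution.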

[3] = system: soybean (Glycine max Merr.); assay: as above
Procedure, shortened: as §1

[4] = system: wheat (Triticum aestivum L.); assay: as above
Procedure, shortened: as §2

[5] = system: green foxtail (Setaria viridis L.); assay: as above
Procedure, shortened: as §1

rice (Oryza sativa L.) [6] = assay: as above
Procedure, shortened: as §1

[7] = system: crabgrass (Digitaria sanquinalis L.); assay: as above
Procedure, shortened: as §2

[8] = system: italian ryegrass (Lolium multiflorum Lam.); assay: as above
Procedure, shortened: as §2

corn (Zea mays L.) [9] = assay: as above
Procedure, shortened: as §2

[10] = system: barnyardgrass (Echinochloa crus-qalli L.); assay: as above
Procedure, shortened: as §2

[11] = system: crabgrass (Digitaris sanquinalis L.); assay: Test Example 2: soil application on the day after sowing, growth inhibition rate on 14th day
Procedure, shortened: (§3)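 Pre-emergence soil spray on upland soil the day after sowing; wettable powder or emulsifiable concentrate diluted in water at 1,000 L/ha, dosed to prescribed active-ingredient amounts. Visual growth inhibition scored 14 days after application, 0 (untreated-equivalent) to 100 (complete kill).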

[12] = system: prickly sida (Sida spinosa L.); assay: as above
Procedure, shortened: as §3

[13] = system: redroot pigweed (Amaranthus retroflexus L.); assay: as above
Procedure, shortened: as §3

[14] = system: soybean (Glycine max Merr.); assay: as above
Procedure, shortened: as §3

[15] = system: wheat (Triticum aestivum L.); assay: as above
Procedure, shortened: as §3

[16] = system: green foxtail (Setaria viridis L.); assay: as above
Procedure, shortened: as §3

rice (Oryza sativa L.) [17] = assay: as above
Procedure, shortened: as §3

corn (Zea mays L.) [18] = assay: as above
Procedure, shortened: as §3

[19] = system: velvetleaf (Abutilon theophrasti MEDIC.); assay: as above
Procedure, shortened: as §3

[20] = system: barnyardgrass (Echinochloa crus-qalli L.); assay: as above
Procedure, shortened: as §3

[21] = active ingredient amount 31 g/ha
[22] = active ingredient amount 500 g/ha

Compound | Growth inhibition rate (%) Wild oat [1, 21] | Growth inhibition rate (%) Redroot pigweed [2, 21] | Growth inhibition rate (%) Soybean [3, 21] | Growth inhibition rate (%) Wheat [4, 21] | Growth inhibition rate (%) Green foxtail [5, 21] | Growth inhibition rate (%) Rice (rice (Oryza sativa L.) [6]; [21]) | Growth inhibition rate (%) Crabgrass [7, 21] | Growth inhibition rate (%) Italian ryegrass [8, 21] | Growth inhibition rate (%) Corn (corn (Zea mays L.) [9]; [21]) | Growth inhibition rate (%) Barnyardgrass [10, 21] | Growth inhibition rate (%) Crabgrass [11, 21] | Growth inhibition rate (%) Prickly sida [12, 21] | Growth inhibition rate (%) Redroot pigweed [13, 21] | Growth inhibition rate (%) Soybean [14, 21] | Growth inhibition rate (%) Wheat [15, 21] | Growth inhibition rate (%) Green foxtail [16, 21] | Growth inhibition rate (%) Rice (rice (Oryza sativa L.) [17]; [21]) | Growth inhibition rate (%) Corn (corn (Zea mays L.) [18]; [21]) | Growth inhibition rate (%) Velvetleaf [19, 21] | Growth inhibition rate (%) Barnyardgrass [20, 21] | also measured
Cc1ccc(Oc2ncc(C(F)(F)F)cc2Br)cc1-c1c(O)c(C)nn(C)c1=O [Compound 2-83] | 88% | 0% | 0% | 10% | 99% | 0% | 98% | 80% | 60% | 99% | 100% | 75% | 100% | 0% | 0% | 100% | 30% | 0% | 0% | 99% | 
Cc1ccc(Oc2nc3ccc(Cl)cc3o2)cc1-c1c(O)cnn(C)c1=O [Compound 2-163] | 75% | 0% | 35% | 10% | 100% | 35% | 95% | 88% | 80% | 100% | 98% | 0% | 0% | 0% | 20% | 99% | 20% | 15% | 0% | 98% | 
Cc1ccc(Oc2cnc3ccccc3c2)cc1-c1c(O)c(C)nn(C)c1=O [Compound 2-112] |  |  |  |  |  |  |  |  |  |  |  |  |  |  |  |  |  |  |  |  | Growth inhibition rate (%) Wild oat [1, 22]: 90%; Growth inhibition rate (%) Redroot pigweed [2, 22]: 20%; Growth inhibition rate (%) Soybean [3, 22]: 0%; Growth inhibition rate (%) Wheat [4, 22]: 80%; Growth inhibition rate (%) Green foxtail [5, 22]: 100%; Growth inhibition rate (%) Rice (rice (Oryza sativa L.) [6]; [22]): 93%; Growth inhibition rate (%) Crabgrass [7, 22]: 98%; Growth inhibition rate (%) Italian ryegrass [8, 22]: 90%; Growth inhibition rate (%) Corn (corn (Zea mays L.) [9]; [22]): 93%; Growth inhibition rate (%) Barnyardgrass [10, 22]: 99%; Growth inhibition rate (%) Crabgrass [11, 22]: 100%; Growth inhibition rate (%) Prickly sida [12, 22]: 0%; Growth inhibition rate (%) Redroot pigweed [13, 22]: 0%; Growth inhibition rate (%) Soybean [14, 22]: 0%; Growth inhibition rate (%) Wheat [15, 22]: 20%; Growth inhibition rate (%) Green foxtail [16, 22]: 100%; Growth inhibition rate (%) Rice (rice (Oryza sativa L.) [17]; [22]): 70%; Growth inhibition rate (%) Corn (corn (Zea mays L.) [18]; [22]): 0%; Growth inhibition rate (%) Velvetleaf [19, 22]: 0%; Growth inhibition rate (%) Barnyardgrass [20, 22]: 100%
CCc1ccc(Sc2ncc(C(F)(F)F)cc2Cl)cc1-c1c(O)c(C)nn(C)c1=O [1-4] | 99% | 10% | 35% | 10% | 100% | 20% | 95% | 95% | 93% | 99% | 99% | 0% | 0% | 0% | 0% | 98% | 40% | 0% | 0% | 100% | 
CCc1ccc(Oc2nc3ccc(Cl)cc3o2)cc1-c1c(OC(C)=O)cnn(C)c1=O [Compound 2-160] | 100% | 0% | 30% | 99% | 100% | 100% | 100% | 100% | 100% | 100% | 99% | 50% | 95% | 0% | 0% | 100% | 0% | 0% | 0% | 100% | 
